Experimental data: US4918077A, “3-phenyl-5,6-dihydrobenz(c)acridine-7-carboxylic acids and related compounds as cancer chemotherapeutic agents” (E. I. Du Pont de Nemours & Co., Inc., priority 1989, dated 1990)
≈ marks a conversion by molar mass, not a printed value.

Assays:
L1210 leukemia = test: L1210 Murine Leukemia Test; type: in vivo, mouse; conditions: intraperitoneal, once daily for nine days
Procedure: (§1) The efficacy of the compounds of this invention against transplanted mouse tumors was evaluated in test systems which are used by the National Cancer Institute for the detection and assessment of anticancer activity. […] J. Cancer, 17, 129-142, (1981); Venditti, J. M., Seminars in Oncology, 8(4)(1981); Goldin, A. and J. M. Venditti in Recent Results in Cancer Research, 70, S. K. Carter and Y. Sakurai, Eds., Springer-Verlag, Berlin/Heidelberg, 1980].
The L1210 tumor line originated in 1948 as a lymphocytic leukemia in a female DBA/2 mouse after the skin was treated with 0.2% 20-methylcholanthrene in ethyl ether. The tumor line is maintained by serial passage in female DBA/2 mice.
On day, 0, female CDF1 mice weighing 18-22 g are inoculated with 1×10^5 L1210 leukemia cells harvested from the ascites of DBA/2 mice. The mice are randomized into groups of six each and the test compounds and vehicle control are administered intraperitoneally once daily for nine consecutive days beginning on day 1. A ≥20% decrease in body weight on day 5 is considered an indication of toxicity. The acceptable control mean survival time is 8-11 days.
Results are expressed as percentage of the mean survival time of the vehicle-treated control group according to the formula: [formula] Mice which survive for 30 days are considered cured and are not included in the calculation of the mean survival time.
The NCI criteria for activity is used. A compound is considered to have moderate activity against L1210 leukemia if it has a % T/C≥125%, and it is considered to have good activity against L1210 leukemia if it has a % T/C≥150%.

[1] = test system: human melanoma RPMI-7272 cells; test: In Vitro RPMI-7272 Human Melanoma Test; type: cell-based; conditions: 72 hours after addition of compound, read-out: ID50 (dose required to inhibit the number of cell doublings by 50%)
Procedure: The compounds of this invention were also tested for their ability to inhibit the growth of human melanoma RPMI-7272 cells in vitro.
Cells are seeded at 3×10^5 per 35 mm plate to initiate growth inhibition studies. Cultures to receive growth medium only (control cultures) are set up in quadruplicate; cultures to receive varying concentrations of compounds are set up at one dish per dose of compound. Twenty-four hours post-seeding, duplicate control cell cultures are trypsinized and cells are counted using a Coulter Counter (day 1 control counts). At this time, varying concentrations of test compounds, from 100 to 0.00001 μg/mL are added to cultures and growth medium only is added to control cultures. Seventy-two hours after the addition of compound, cells are trypsinized and counted. The numbers of cell population doublings (day 4) in the presence or absence of compound are calculated.
Compounds are dissolved at 10-25 mg/mL in dimethylsulfoxide. Dilutions to 1 mg/mL in complete growth medium are made, followed by stock preparations of 100 and 30 μg/mL in complete growth medium. Serial ten-fold dilutions in complete medium are formulated from the 100 and 30 μg/mL stocks, respectively, and added to cultures.

B16 melanoma = test: B16 Murine Melanoma Test; type: in vivo, mouse; conditions: intraperitoneal, once daily for nine days
Procedure: as §1
The B16 tumor line arose spontaneously in 1954 on the skin at the base of the ear of a C57BL mouse. The tumor line is maintained by serial passage in female C57BL mice.
On day 0, female B6C3F1 mice are inoculated intraperitoneally with 0.5 mL of a 10% tumor brei. This brei is prepared by homogenizing fresh B16 tumors, grown subcutaneously in C57BL mice, in cold physiological saline. Mice are randomized in groups of ten each, with 20 animals being in the control group. The test compounds and vehicle control are administered intraperitoneally once daily for nine consecutive days beginning on day 1. A ≥20% decrease in body weight on day 5 is considered an indication of toxicity. The acceptable mean control survival time is 14-22 days. Results are expressed as a percentage of the mean survival time of the vehicle-treated control group according to the formula: [formula] […]

[2] = test system: DLD-2 human colon carcinoma xenograft; test: DLD-2 Human Colon Carcinoma Xenograft Test; type: in vivo, human tumor in athymic (NU/NU) mice; conditions: dose 50 mg/kg, intraperitoneal, once daily for nine days
Procedure: as §1
The DLD-2 tumor line was orignally obtained from a primary colon carcinoma surgically removed from a patient. The line is maintained by serial passage in athymic nude mice.
On day 0, male and female outbred Swiss mice bearing the NU/NU gene and weighing 22-30 g are inoculated with 0.2 mL of a 25% tumor mince. […] Tumor measurements and weights are recorded once a week. […]
The efficacy of the test compounds is determined by the extent of tumor growth inhibition in treated versus vehicle-treated control mice. Initial tumor weights (mg) are calculated from the tumor dimensions (mm) using the formula for the volume of a prolate ellipsoid (L×W^2 /2). Net tumor weights are calculated for each of the treated groups and the vehicle-treated control group by subtracting the initial tumor weight (estimated) from the final tumor weight (actual) on day 19. […] Results are expressed as percent inhibition of control growth according to the formula: [formula] […]

O=C(O)c1c2c(nc3ccccc13)-c1ccc(-c3ccccc3)cc1CC2 [Example 1, 5,6-Dihydro-3-phenylbenz[c]acridine-7-carboxylic acid]
% T/C (mean survival time, percentage of vehicle-treated control) (L1210 leukemia; dose 100 mg/kg): 178%
IC50 [1]: 14.1 µg/mL (≈ 40.1 µM)

O=C(O)c1c2c(nc3ccc(F)cc13)-c1ccc(-c3ccccc3)cc1CC2 [Example 3, 5,6-Dihydro-9-fluoro-3-phenylbenz[c]acridine-7-carboxylic acid]
% T/C (mean survival time, percentage of vehicle-treated control) (B16 melanoma; dose 35 mg/kg): 134%
% T/C (mean survival time, percentage of vehicle-treated control) (L1210 leukemia; dose 100 mg/kg): 180%
% Inhibition (tumor growth) [2]: 70%
IC50 [1]: 0.05 µg/mL (≈ 0.135 µM)

O=C([O-])c1c2c(nc3ccc(F)cc13)-c1ccc(-c3ccccc3)cc1CC2.[Na+] [Example 12, 5,6-Dihydro-9-fluoro-3-phenylbenz[c]acridine-7-carboxylic acid, sodium salt]
% T/C (mean survival time, percentage of vehicle-treated control) (B16 melanoma; dose 50 mg/kg): 140%
% T/C (mean survival time, percentage of vehicle-treated control) (L1210 leukemia; dose 50 mg/kg): 171%
IC50 [1]: 0.06 µg/mL

O=C(O)c1c2c(nc3ccccc13)-c1cc3sc4ccccc4c3cc1CC2 [Example 24]
IC50 [1]: 1.96 µg/mL (≈ 5.14 µM)

O=C(O)c1c2c(nc3ccc(F)cc13)-c1cc3sc4ccccc4c3cc1CC2 [Example 27, 6,7-Dihydro-3-fluoro[1]-benzothieno[2',3':4,5]benz[1,2-c]acridine-5-carboxylic acid]
% T/C (mean survival time, percentage of vehicle-treated control) (L1210 leukemia; dose 100 mg/kg): 149%
IC50 [1]: 1.4 µg/mL (≈ 3.5 µM)
